From ChEMBL document CHEMBL1201862, “PubChem BioAssay data set” (2004)
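Five compound concentrations were applied to cells in 96-well plates for 48 hours; endpoints were derived by simple linear interpolation of the resulting dose-response curve. Abbreviation: GI50, concentration required for 50% inhibition of growth.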 The source made the active and inactive calls. Rule as the data show it: active = GI50 up to about 1.1 µM and inactive = higher.

Tests used:
Assay in all cases: DTP human tumour cell line panel, 48 h
[1] = test system: NCI-H23
[2] = test system: SK-MEL-28
[3] = test system: HCC 2998
[4] = test system: SK-MEL-2
[5] = test system: SF-295
[6] = test system: EKVX
[7] = test system: HCT-15
[8] = test system: HOP-62
[9] = test system: MDA-N
[10] = test system: ACHN
[11] = test system: SN12C
[12] = test system: OVCAR-3
[13] = test system: BT-549
[14] = test system: DU-145
[15] = test system: OVCAR-5
[16] = test system: PC-3
[17] = test system: NCI-H460
[18] = test system: SK-OV-3
[19] = test system: NCI/ADR-RES
[20] = test system: CAKI-1
[21] = test system: RXF 393
[22] = test system: MDA-MB-435
[23] = test system: OVCAR-4
[24] = test system: A549
[25] = test system: Hs-578T
[26] = test system: MDA-MB-231
[27] = test system: MOLT-4
[28] = test system: 786-0
[29] = test system: UO-31
[30] = test system: UACC-257
[31] = test system: SF-539
[32] = test system: U-251
[33] = test system: SF-268
[34] = test system: MCF7
[35] = test system: HT-29
[36] = test system: SW-620
[37] = test system: K562
[38] = test system: SNB-75
[39] = test system: LOX IMVI
[40] = test system: SR
[41] = test system: COLO 205
[42] = test system: HCT-116
[43] = test system: OVCAR-8
[44] = test system: IGROV-1
[45] = test system: RPMI-8226
[46] = test system: CCRF-CEM
[47] = test system: T47D
[48] = test system: Malme-3M
[49] = test system: M14
[50] = test system: NCI-H522
[51] = test system: KM12
[52] = test system: UACC-62
[53] = test system: A498
[54] = test system: HL-60
[55] = test system: NCI-H226
[56] = test system: SK-MEL-5
[57] = test system: SNB-19
[58] = test system: TK-10
[59] = test system: HOP-92

`NC(CCC(=O)NC(CSC(=O)N(O)c1ccc(Br)cc1)C(=O)NCC(=O)O)C(=O)O` (stereo unspecified) was tested, and the GI50 [1] was > 50 µM (inactive), the GI50 [2] was > 50 µM (inactive) and the GI50 [3] was > 50 µM (inactive). For the same compound, the GI50 [4] was > 50 µM (inactive), the GI50 [5] was > 50 µM (inactive) and the GI50 [6] was > 50 µM (inactive). For the same compound, the GI50 [7] was greater than 50 µM, the GI50 [8] was > 50 µM (inactive) and the GI50 [9] was > 50 µM (inactive). For the same compound, the GI50 [10] was > 50 µM (inactive), the GI50 [11] was > 50 µM (inactive) and the GI50 [12] was > 50 µM (inactive). For the same compound, the GI50 [13] was > 50 µM (inactive), the GI50 [14] was > 50 µM (inactive) and the GI50 [15] was > 50 µM (inactive). For the same compound, the GI50 [16] was > 50 µM (inactive), the GI50 [17] was > 50 µM (inactive) and the GI50 [18] was > 50 µM (inactive). The GI50 [19] was > 50 µM (inactive), the GI50 [20] was > 50 µM (inactive) and the GI50 [21] was > 50 µM (inactive). The GI50 [22] was > 50 µM (inactive), the GI50 [23] was > 50 µM (inactive) and the GI50 [24] was > 50 µM (inactive). The GI50 [25] was 27.4 µM (inactive), the GI50 [26] was > 50 µM (inactive) and the GI50 [27] was > 50 µM (inactive). The GI50 [28] was > 50 µM (inactive), the GI50 [29] was > 50 µM (inactive) and the GI50 [30] was > 50 µM (inactive). For the same compound, the GI50 [31] was > 50 µM (inactive), the GI50 [32] was > 50 µM (inactive) and the GI50 [33] was > 50 µM (inactive). The GI50 [34] was > 50 µM (inactive), the GI50 [35] was > 50 µM (inactive) and the GI50 [36] was > 50 µM (inactive). For the same compound, the GI50 [37] was > 50 µM (inactive).

For `CC(=O)/N=C1/N(/C=C2\C(=O)Oc3ccccc3C2=O)C(=O)/C(=C/c2ccc(Cl)cc2Cl)N1C`, the GI50 [38] was 18.7 µM (inactive), the GI50 [39] was 62.2 µM (inactive) and the GI50 [40] was 17.4 µM (inactive). For the same compound, the GI50 [1] was > 100 µM (inactive), the GI50 [41] was > 100 µM (inactive) and the GI50 [2] was 73.8 µM (inactive). For the same compound, the GI50 [42] was 81.1 µM (inactive), the GI50 [3] was > 100 µM (inactive) and the GI50 [4] was 71.4 µM (inactive). For the same compound, the GI50 [43] was > 100 µM (inactive), the GI50 [5] was > 100 µM (inactive) and the GI50 [44] was 40 µM (inactive). The GI50 [6] was 18.7 µM (inactive), the GI50 [7] was greater than 100 µM and the GI50 [45] was 26.4 µM (inactive). For the same compound, the GI50 [46] was 66.8 µM (inactive), the GI50 [8] was 48.3 µM (inactive) and the GI50 [47] was > 100 µM (inactive). The GI50 [10] was > 100 µM (inactive), the GI50 [11] was > 100 µM (inactive) and the GI50 [48] was > 100 µM (inactive). The GI50 [49] was > 100 µM (inactive), the GI50 [12] was 59.2 µM (inactive) and the GI50 [50] was 94 µM (inactive). For the same compound, the GI50 [51] was 66.8 µM (inactive), the GI50 [13] was 11.5 µM (inactive) and the GI50 [14] was > 100 µM (inactive). For the same compound, the GI50 [15] was > 100 µM (inactive), the GI50 [16] was > 100 µM (inactive) and the GI50 [52] was 26.2 µM (inactive). The GI50 [17] was > 10 µM (inactive), the GI50 [18] was > 100 µM (inactive) and the GI50 [19] was > 100 µM (inactive). The GI50 [20] was > 100 µM (inactive), the GI50 [21] was > 100 µM (inactive) and the GI50 [22] was 34.2 µM (inactive). For the same compound, the GI50 [23] was > 100 µM (inactive), the GI50 [53] was 19.2 µM (inactive) and the GI50 [24] was 96.6 µM (inactive). For the same compound, the GI50 [25] was 0.991 µM (active), the GI50 [26] was > 100 µM (inactive) and the GI50 [27] was 40.7 µM (inactive). The GI50 [28] was > 100 µM (inactive), the GI50 [30] was > 100 µM (inactive) and the GI50 [31] was 25.6 µM (inactive). The GI50 [54] was 36.6 µM (inactive), the GI50 [32] was 52.6 µM (inactive) and the GI50 [33] was 28.8 µM (inactive). The GI50 [34] was > 100 µM (inactive), the GI50 [55] was > 100 µM (inactive) and the GI50 [35] was > 100 µM (inactive). The GI50 [36] was 50.6 µM (inactive), the GI50 [56] was 10.9 µM (inactive) and the GI50 [37] was 39.4 µM (inactive).

For `Cn1nc(Cc2ccc(Cl)cc2)n(N)c1=O`, the GI50 [38] was > 100 µM (inactive), the GI50 [1] was > 100 µM (inactive) and the GI50 [2] was > 100 µM (inactive). For the same compound, the GI50 [42] was > 100 µM (inactive), the GI50 [3] was > 100 µM (inactive) and the GI50 [43] was > 100 µM (inactive). For the same compound, the GI50 [5] was > 100 µM (inactive), the GI50 [44] was > 100 µM (inactive) and the GI50 [7] was greater than 100 µM. The GI50 [45] was > 100 µM (inactive), the GI50 [9] was > 100 µM (inactive) and the GI50 [47] was > 100 µM (inactive). For the same compound, the GI50 [10] was > 100 µM (inactive), the GI50 [11] was > 100 µM (inactive) and the GI50 [48] was > 100 µM (inactive). The GI50 [51] was > 100 µM (inactive), the GI50 [13] was > 100 µM (inactive) and the GI50 [14] was > 100 µM (inactive). The GI50 [15] was > 100 µM (inactive), the GI50 [16] was > 100 µM (inactive) and the GI50 [52] was 39.2 µM (inactive). For the same compound, the GI50 [17] was > 100 µM (inactive), the GI50 [19] was > 100 µM (inactive) and the GI50 [20] was > 100 µM (inactive). The GI50 [21] was > 100 µM (inactive), the GI50 [22] was > 100 µM (inactive) and the GI50 [53] was > 100 µM (inactive). The GI50 [24] was > 100 µM (inactive), the GI50 [26] was > 100 µM (inactive) and the GI50 [27] was > 100 µM (inactive). The GI50 [28] was > 100 µM (inactive), the GI50 [57] was > 100 µM (inactive) and the GI50 [29] was > 100 µM (inactive). The GI50 [30] was > 100 µM (inactive), the GI50 [31] was > 100 µM (inactive) and the GI50 [32] was > 100 µM (inactive). For the same compound, the GI50 [33] was > 100 µM (inactive), the GI50 [58] was > 100 µM (inactive) and the GI50 [34] was > 100 µM (inactive). The GI50 [55] was > 100 µM (inactive), the GI50 [35] was > 100 µM (inactive) and the GI50 [36] was > 100 µM (inactive). The GI50 [56] was > 100 µM (inactive) and the GI50 [37] was > 100 µM (inactive).

With `COc1cccc2c(Nc3ccc(S(=O)(=O)N=C(N)N)cc3)c3ccc([N+](=O)[O-])cc3nc12` the GI50 [39] was 11.4 µM (inactive), the GI50 [40] was 11.3 µM (inactive) and the GI50 [59] was 12.3 µM (inactive). The GI50 [1] was 14.7 µM (inactive), the GI50 [41] was 18.8 µM (inactive) and the GI50 [2] was 35.2 µM (inactive). The GI50 [42] was 16.6 µM (inactive), the GI50 [3] was 3.23 µM (inactive) and the GI50 [4] was 14.3 µM (inactive). For the same compound, the GI50 [43] was 15.7 µM (inactive), the GI50 [5] was 29.4 µM (inactive) and the GI50 [44] was 8.2 µM (inactive). The GI50 [6] was 26.2 µM (inactive), the GI50 [7] was 30 µM and the GI50 [45] was 8.05 µM (inactive). The GI50 [46] was 2.38 µM (inactive), the GI50 [8] was 15.7 µM (inactive) and the GI50 [9] was 17.6 µM (inactive). The GI50 [47] was 1.35 µM (inactive), the GI50 [10] was 10.2 µM (inactive) and the GI50 [11] was 30 µM (inactive). The GI50 [48] was 10.7 µM (inactive), the GI50 [49] was 16.3 µM (inactive) and the GI50 [12] was 20.4 µM (inactive). For the same compound, the GI50 [50] was 6.71 µM (inactive), the GI50 [51] was 3.99 µM (inactive) and the GI50 [13] was 13.6 µM (inactive). The GI50 [14] was 8.67 µM (inactive), the GI50 [15] was 44.6 µM (inactive) and the GI50 [16] was 18.7 µM (inactive). The GI50 [52] was 5.98 µM (inactive), the GI50 [17] was 4.32 µM (inactive) and the GI50 [18] was 28.6 µM (inactive). The GI50 [19] was > 100 µM (inactive), the GI50 [20] was 5.57 µM (inactive) and the GI50 [21] was 40.4 µM (inactive). The GI50 [22] was 23.6 µM (inactive), the GI50 [23] was 37.7 µM (inactive) and the GI50 [53] was 19.1 µM (inactive). For the same compound, the GI50 [24] was 20.2 µM (inactive), the GI50 [26] was 2.34 µM (inactive) and the GI50 [27] was 2.29 µM (inactive). The GI50 [28] was 11.5 µM (inactive), the GI50 [57] was 12.6 µM (inactive) and the GI50 [29] was 16.3 µM (inactive). For the same compound, the GI50 [30] was 17.4 µM (inactive), the GI50 [31] was 4.85 µM (inactive) and the GI50 [32] was 5.61 µM (inactive). The GI50 [33] was 5.62 µM (inactive), the GI50 [58] was 25.6 µM (inactive) and the GI50 [34] was 4.09 µM (inactive). The GI50 [55] was 38.8 µM (inactive), the GI50 [35] was 32.8 µM (inactive) and the GI50 [36] was 16.7 µM (inactive). The GI50 [56] was 11.6 µM (inactive) and the GI50 [37] was 6 µM (inactive).
